The text below walks through data of patent US12691127B2, “Use of glucocorticoid receptor antagonists in combination with glucocorticoids to treat adrenal insufficiency” (Corcept Therapeutics, Inc., priority 2015, dated 2026).

Data set [1] has as its system HPA axis. Kind of data set: Case report: recovery of the HPA axis (ACTH, cortisol, DHEA levels) in a patient with secondary adrenal insufficiency. It counts as in vivo, human. The source says: The patient is a person who developed depression for which they were placed on various psychotropic medications. They developed progressive malaise, 25 pound weight gain, muscle weakness, easing bruising, hypertension and foot stress fracture. They underwent screening DEXA bone density scan because of their personal history of fracture and a family history of advanced osteoporosis and genetically confirmed hypophosphatasia in their parent. The DEXA bone density scan disclosed a T-score of −3.4 at the lumbar spine and −3.1 at the hip. […] Further testing for secondary causes of osteoporosis included 24-hour urinary free cortisol which was markedly elevated at 499 mcg/day (range 10-80 mcg/day). Plasma ACTH level was undetectable. […], they underwent uncomplicated right laparoscopic adrenalactomy and histopathology confirmed a 3.7 cm adrenal cortical adenoma. The patient underwent a unilateral procedure, leaving one adrenal gland intact. Post-operatively the patient was placed on hydrocortisone replacement, initially at a dose of 40 mg/day given in divided doses and gradually tapered to 30 mg/day over the following several months. One year after their adrenalectomy, their hydrocortisone had been further tapered to 15 mg/day, which remained their maintenance dose. During the ensuing 6 years after their adrenalectomy, the patient generally felt unwell with symptoms of episodic nausea, headaches, lightheadedness, mood swings and generalized weakness. Quarterly measurement of serum cortisol and plasma ACTH levels (performed after holding hydrocortisone for 18 hours) consistently yielded undetectable values for both parameters. During this 6 year period, they had one pregnancy, occurring 3 years after adrenalectomy and progressing to full-term delivery of a healthy child. They had two other hospitalizations (separated by 4 years) for near-syncope, malaise, nausea and vomiting (but without hypoglycemia or hypotension). Both episodes were treated with 48-hours of intravenous stress-doses of glucocorticoids and saline, followed by improvement of their symptoms and subsequent tapering of glucocorticoids to a replacement dose of hydrocortisone 15 mg/day. The failure of the HPA axis to recover six years after adrenalectomy (despite physiological steroid dosing) prompted magnetic resonance imaging of the sella to rule out structural abnormalities of the hypothalamus, infundibulum and pituitary. This MRI was unremarkable. At that time, after a balanced discussion of risk and benefit, mifepristone 150 mg every other day was initiated and the dose of hydrocortisone 15 mg/day was continued. Over the ensuing five months, the dose of mifepristone was gradually escalated to 300 mg every other day, then 300 mg daily and finally maintained at 600 mg daily. […] The dose of hydrocortisone was lowered and ultimately stopped 8 months after initiation of mifepristone. […] The pruritis was tolerable and managed with over the counter anti-histamines. At no point during treatment with mifepristone did the patient develop signs or symptoms of adrenal insufficiency. Their menses returned 3 weeks after discontinuation of mifepristone. [table] […] Recovery of the patient's HPA axis was achieved. The patient's ACTH and cortisol levels increased in response to the drug treatment.

Data set [2] can be described thus: Case report: tolerability and side effects of mifepristone in the patient. It counts as in vivo, human. The method, then: The failure of the HPA axis to recover six years after adrenalectomy (despite physiological steroid dosing) prompted magnetic resonance imaging of the sella to rule out structural abnormalities of the hypothalamus, infundibulum and pituitary. This MRI was unremarkable. At that time, after a balanced discussion of risk and benefit, mifepristone 150 mg every other day was initiated and the dose of hydrocortisone 15 mg/day was continued. Over the ensuing five months, the dose of mifepristone was gradually escalated to 300 mg every other day, then 300 mg daily and finally maintained at 600 mg daily. […] The dose of hydrocortisone was lowered and ultimately stopped 8 months after initiation of mifepristone. […] The pruritis was tolerable and managed with over the counter anti-histamines. At no point during treatment with mifepristone did the patient develop signs or symptoms of adrenal insufficiency. Their menses returned 3 weeks after discontinuation of mifepristone.

The mark [3] stands for this setting: 6 years after adrenalectomy on hydrocortisone replacement alone (15 mg/day), after holding hydrocortisone for 18 hours.
Setting [4] is: Month 0, Mife dose 0, HC dose 15 mg (before mifepristone).
Where [5] appears, read: Month 1, Mife 150 mg TIW, HC 15 mg.
The mark [6] stands for this setting: Month 3, Mife 300 mg TIW, HC 15 mg.
The mark [7] stands for this setting: Month 4, Mife 300 mg daily, HC 15 mg.
[8] abbreviates: Month 5, Mife 600 mg daily, HC 15 mg.
[9] abbreviates: Month 6, Mife 600 mg daily, HC 10 mg.
Where [10] appears, read: Month 10, Mife 0, HC 0 (after completion of treatment).
[11] abbreviates: Month 11, Mife 0, HC 0 (after completion of treatment).
Setting [12] is: patient, mifepristone up to 600 mg daily.

As for `C[C@]12CCC(=O)C=C1CC[C@@H]1[C@@H]2[C@@H](O)C[C@@]2(C)[C@H]1CC[C@]2(O)C(=O)CO` [hydrocortisone], in data set [1] (setting [3]), the “plasma ACTH level, quarterly measurement” value is “undetectable” and the “serum cortisol level, quarterly measurement” value is given as “undetectable”. In data set [1] (setting [4]), this compound showed an ACTH of 5 pg/mL, a Cortisol of less than 1 µg/dL and a DHEA of less than 0.05 ng/mL.

For `CC#C[C@]1(O)CC[C@H]2[C@@H]3CCC4=CC(=O)CCC4=C3[C@@H](c3ccc(N(C)C)cc3)C[C@@]21C` [mifepristone, 17-β-hydrox-11-β-(4-dimethyl-aminophenyl)17-α-(1-propynyl)estra-4,9-dien-3-one], the ACTH turned out to be 15 pg/mL in data set [1] (setting [5]); 18 pg/mL in data set [1] (setting [6]); 60 pg/mL in data set [1] (setting [7]); 78 pg/mL in data set [1] (setting [8]); 173 pg/mL in data set [1] (setting [9]); 126 pg/mL in data set [1] (Month 8, Mife 300 mg TIW, HC 0). For the same compound, the ACTH turned out to be 26 pg/mL in data set [1] (setting [10]) and 45 pg/mL in data set [1] (setting [11]). Moreover, the Cortisol in data set [1] (setting [5]) is less than 1 µg/dL; in data set [1] (setting [6]), less than 1 µg/dL; in data set [1] (setting [7]) it was 3.6 µg/dL; in data set [1] (setting [8]) it was 4.6 µg/dL; in data set [1] (setting [9]) it was 10.5 µg/dL; in data set [1] (Month 8, Mife 300 mg TIW, HC 0) it was 13.6 µg/dL. Moreover, the Cortisol in data set [1] (setting [10]) was 13.5 µg/dL; in data set [1] (setting [11]), 15.3 µg/dL. For the same compound, the DHEA in data set [1] (setting [5]) was less than 0.05 ng/mL; in data set [1] (setting [6]), less than 0.05 ng/mL; in data set [1] (setting [7]), less than 0.05 ng/mL; in data set [1] (setting [8]) it was less than 0.05 ng/mL; in data set [1] (setting [9]), less than 0.05 ng/mL; in data set [1] (Month 8, Mife 300 mg TIW, HC 0) it was less than 0.05 ng/mL. Besides, the DHEA is less than 0.05 ng/mL in data set [1] (setting [10]) and 0.053 ng/mL in data set [1] (setting [11]). The “levels of ACTH and cortisol after completion of the treatment” value in data set [1] (after completion of hydrocortisone and mifepristone treatment) was “Normal levels of ACTH and cortisol were maintained”. Besides, the “treatment outcome of secondary adrenal insufficiency” value in data set [1] (co-administration of hydrocortisone and mifepristone) was “successfully treated”. Also, the “recovery of the HPA axis” value in data set [1] (mifepristone escalated 150 mg every other day to 600 mg daily, with hydrocortisone 15 mg/day) is given as “rapid recovery of the HPA axis was noted”. The “time to rise in ACTH into the supra-normal range after starting mifepristone” value in data set [1] (with hydrocortisone 15 mg/day) was 4 months. Moreover, the “signs or symptoms of adrenal insufficiency during treatment” value in data set [2] (during treatment with mifepristone) is recorded as “At no point”. In addition, the “time to return of menses after discontinuation of mifepristone” value in data set [2] (human, in vivo) came out at 3 weeks. Besides, the side effects result in data set [2] (setting [12]) was “amenorrhea and pruritis”. For the same compound, the tolerability entry in data set [2] (setting [12]) is “tolerated mifepristone remarkably well”.
